According to patent US20060217340A1, “Methods and products for treating hypertension by modulation of TRPC3 channel activity” (University of Vermont and State Agricultural College, priority 2005, published 2006):

Tests used:
[1] = test system: pressurized rat cerebral arteries; assay: Arterial wall Ca2+ concentration measurement (FURA-2) in isolated arteries; type: cell-based; conditions: for change in arterial wall Ca2+: Ca2+ returned to superfusate in the presence of UTP and nimodipine
Description: Diameter and membrane potential recordings. […] In experiments using Ca^2+-free PSS, CaCl2 was omitted and 3 mM EGTA and 30 μM diltiazem added. In experiments with diacylglycerol induction, 300 μM of the diacylglycerol analogue OAG (1-oleyol-2-acetyl-sn-glycerol) was added. […] To verify endothelial cell removal the arteries were pressurized to 60 mmHg and allowed to develop myogenic tone prior to exposing the vessels to 1 μM UTP. […] Arterial diameter or membrane potential (Vm) of sense and anti-sense treated arteries was measured in the absence (control) or presence of UTP (concentration range: 0.1 to 10 μM). Membrane potential was measured by inserting a sharp glass electrode (≈100 MΩ resistance) containing 0.5M KCl into the vessel wall. […] Measurements were made using an electrometer (World Precision Instruments) and the data were recorded via computer using Axotape and Dataq software. Arterial diameter was measured using a video dimension analyzer (IonOptix Corporation; Milton, Mass.).
Ca^2+ concentration measurement in isolated arteries. Mounted arteries were equilibrated in 1.6 m M PSS for 40 minutes at 37° C. (pH 7.4) prior to loading the vascular smooth muscle cells with the Ca^2+-sensitive fluorescent dye, FURA-2. To load the cells, the 1.6 mM PSS was gradually replaced over 5 minutes with HEPES solution (25° C., pH 7.4). A total of 40 μL of a premixed 100 μM FURA-2-acetoxymethyl ester solution (100 μg FURA-2, 200 μL Pluronic acid, 800 μL DMSO) was added directly to the HEPES to give a final concentration of 2 μM FURA-2 AM. Loading continued in the dark at 25° C. (pH 7.4) for 40 minutes. At the end of the loading period, the HEPES was replaced with 1.6 mM PSS (35° C., pH 7.4) and 30 minutes was allowed for complete de-esterification of the FURA-2 AM before [Ca^2+]c measurements were made. FURA-2 fluorescence was measured using a photomultiplier system (IonOptix Corporation; Milton, Mass., USA) in which background-corrected ratios of the 510-nm emission from arteries alternatively excited at 340 and 380 nm were obtained at a sampling rate of 5 Hz.

[2] = test system: pressurized rat cerebral arteries; assay: Arterial diameter recordings (constriction) in pressurized cerebral arteries; type: cell-based; conditions: for change in lumen diameter: Ca2+ returned to superfusate in the presence of UTP and nimodipine; for decrease of resting diameter: extracellular KCl raised from 5 mM to 60 mM; for myogenic tone: intravascular pressure increased from 20 to 80 mm Hg
Description: Oligodeoxynucleotide Sequences and Reverse Permeabilization. TRPC6 sense and antisense oligodeoxynucleotides (ODN's) were designed as previously described (Welsh et al 2002 Circ Res 90, 248-250) and were as follows: sense, 5′-[…]-3′ (SEQ ID: 3) and 5′-GCACACGCAGCCTCTTCAC-3′ (SEQ ID: 4) antisense, 5′-[…]-3′ (SEQ ID: 5) and 5′-[…]-3′ (SEQ ID: 6). TRPC3 sense and antisense ODN's were designed based on the rat TRPC3 gene (Ohki et al 2000 J Biol Chem 275: 39055-39060) and are as follows: sense, 5′-[…]-3′ (SEQ ID: 7) and 5′-[…]-3′ (SEQ ID: 8); anti-sense, 5′-[…]-3′ (SEQ ID: 9) and 5′-[…]-3′ (SEQ ID: 10). The last five bases on the 5′ and 3′ end were phosphorothioated in order to limit ODN degradation. For some experiments fluoroscein-isothiocyanate was conjugated to the 5′ end to allow for histological assessment of cellular uptake of the ODNs. All ODNs were synthesized and HPLC purified commercially by Qiagen (Alameda, Calif., USA). Sense and antisense ODN's (2 μM) were introduced into the arterial SMs using a reversible permeabilization procedure (Lesh et al 1995 Circ Res 77,220-230)). The arterial segments were then organ cultured for 3 days in D-MEM/F-12 culture media with L-glutamine (2 mM), penicillin (50 units/ml) and streptomycin (50 μg/ml) prior to use.
Diameter and membrane potential recordings. Endothelial cell denuded artery segments were mounted on glass pipettes in an arteriograph chamber (Living Systems, Burlington, Vt., USA), pressurized to 20 mmHg (with no flow), and superfused with warm (37° C.), gassed (95% 02/5% CO2) physiological saline solution (PSS) containing (in mM): 119 NaCl, 4.7 KCl, 24 NaHCO3, 0.2 KH2PO4, […], 1.2 MgSO4, 1.6 CaCl2, and 10.6 glucose, pH 7.4. In experiments using Ca^2+-free PSS, CaCl2 was omitted and 3 mM EGTA and 30 μM diltiazem added. In experiments with diacylglycerol induction, 300 μM of the diacylglycerol analogue OAG (1-oleyol-2-acetyl-sn-glycerol) was added. The endothelium was removed as previously described (Sun et al 1993 Endothelium 1, 115-122). To verify endothelial cell removal the arteries were pressurized to 60 mmHg and allowed to develop myogenic tone prior to exposing the vessels to 1 μM UTP. Absence of a dilation or biphasic constrictor response to 1 μM UTP indicated successful endothelial cell removal (Marelli 2001 Am J Physiol Heart Cir Physiol 281, H1759-H1766; Miyagi et al 1996 Br J Pharmacol 118, 847-856). […] Membrane potential was measured by inserting a sharp glass electrode (≈100 MΩ resistance) containing 0.5M KCl into the vessel wall. The criteria for successful vascular smooth muscle cell impalement were: (1) a sharp negative Vm deflection on entry; (2) a stable potential for at least 1 minute after entry; and (3) a sharp positive Vm deflection upon removal. Measurements were made using an electrometer (World Precision Instruments) and the data were recorded via computer using Axotape and Dataq software. Arterial diameter was measured using a video dimension analyzer (IonOptix Corporation; Milton, Mass.).
Statistical analysis. Data are expressed as means±SEM, and n indicates the number of animals. Changes in arterial diameter were measured as a percent constriction calculated as follows: [formula]

[3] = 1 μM UTP, paired arteries, original recordings (FIG. 7A)

5′-GAGAACCATGAACTGGAATA-3′ (SEQ ID: 9) and 5′-ACGACCAACACGACCAGACA-3′ (SEQ ID: 10) (phosphorothioate ends, further chemistry not given here) [TRPC3 antisense, antisense ODNs based on the rat TRPC3 gene; last five bases on the 5′ and 3′ end phosphorothioated]
increase in arterial wall Ca2+ ([1]; 300 μM OAG): 6 ± 2 nM | change in arterial wall Ca2+ [1]: 50 ± 12 nM | generalized inhibitory effect on arterial contractility [2]: no generalized inhibitory effect | constriction [2, 3]: 30% | constriction ([2]; 300 μM OAG): 1±1% | reduction of UTP-induced constriction compared with sense-treated arteries ([2]; 10^−5 M UTP): 37% | reduction of UTP-induced constriction compared with sense-treated arteries ([2]; 10^−6 M UTP): approximately 61% | change in lumen diameter [2]: −85±17 μm | decrease of resting diameter [2]: 57±9% | myogenic tone [2]: 27±5% | constrictions versus sense treated arteries ([2]; low concentration of UTP (0.1 to 1.0 μM)): significantly less

5′-TATTCCAGTTCATGGTTCTC-3′ (SEQ ID: 7) and 5′-TGTCTGGTCGTGTTGGTCGT-3′ (SEQ ID: 8) (phosphorothioate ends, further chemistry not given here) [TRPC3 sense, sense control ODNs based on the rat TRPC3 gene; end bases phosphorothioated]
change in arterial wall Ca2+ [1]: 100 ± 22 nM | constriction [2, 3]: 38% | constriction ([2]; 300 μM OAG): 17±3% | change in lumen diameter [2]: −128±8 μm | decrease of resting diameter [2]: 58±12% | myogenic tone [2]: 26±4%
